In ChEMBL document CHEMBL1152880, “Synthesis and SAR studies of trisubstituted purinones as potent and selective adenosine A2A receptor antagonists” (Bioorg Med Chem Lett, 2009):

How the values were obtained:
Adenosine receptor A2a = Adenosine receptor A2a (Homo sapiens, UniProt P29274); assay: Displacement of [3H]SCH-58261 from human recombinant adenosine A2A receptor expressed in HEK293 cells; format: cell-based
Adenosine receptor A1 = molecular target: T1, Adenosine receptor A1 (Homo sapiens, UniProt P30542); assay: Displacement of [3H]DPCPX from human recombinant adenosine A1 receptor expressed in CHOK1 cells; format: cell-based, CHO-K1
T1 sequence (P30542 whole entry): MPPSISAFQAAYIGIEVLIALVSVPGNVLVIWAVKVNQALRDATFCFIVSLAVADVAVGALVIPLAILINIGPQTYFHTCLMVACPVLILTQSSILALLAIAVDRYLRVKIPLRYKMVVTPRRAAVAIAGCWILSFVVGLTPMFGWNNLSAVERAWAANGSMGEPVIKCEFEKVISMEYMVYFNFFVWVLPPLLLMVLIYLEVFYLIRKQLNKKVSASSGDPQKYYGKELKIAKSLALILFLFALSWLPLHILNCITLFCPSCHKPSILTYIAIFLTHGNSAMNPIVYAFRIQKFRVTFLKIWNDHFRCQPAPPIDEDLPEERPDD

Homo sapiens = species: Homo sapiens; assay: Selectivity ratio of Ki for human adenosine A1 receptor to Ki for human recombinant adenosine A2A receptor

Chain of Adenosine receptor A2a (P29274 whole entry): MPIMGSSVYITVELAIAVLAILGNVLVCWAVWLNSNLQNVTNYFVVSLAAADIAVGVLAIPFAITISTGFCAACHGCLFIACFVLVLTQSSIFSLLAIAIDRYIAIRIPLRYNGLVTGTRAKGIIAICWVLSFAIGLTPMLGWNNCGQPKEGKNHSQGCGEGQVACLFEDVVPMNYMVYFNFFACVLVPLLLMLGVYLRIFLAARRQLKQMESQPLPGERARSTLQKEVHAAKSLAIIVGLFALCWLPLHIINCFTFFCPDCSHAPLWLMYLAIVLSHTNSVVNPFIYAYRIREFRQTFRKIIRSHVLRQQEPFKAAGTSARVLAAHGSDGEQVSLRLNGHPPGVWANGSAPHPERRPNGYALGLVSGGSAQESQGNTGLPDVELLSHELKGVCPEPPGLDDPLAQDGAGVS

Compound `COc1cccc(-n2c(=O)n(C)c3cnc(NC4CC4)nc32)c1` has a Ki (Adenosine receptor A2a) of 2.64 µM.

Compound `COc1cccc(-n2c(=O)n(Cc3c(F)cccc3F)c3cnc(NCCN(C)C)nc32)c1` has a Ki (Adenosine receptor A1) of 10 µM, a Ki (Adenosine receptor A2a) of 0.261 µM and a Ratio Ki (Homo sapiens) of 38.

`CNc1ncc2c(n1)n(-c1cccc(OC)c1)c(=O)n2Cc1c(F)cccc1F` showed a Ki (Adenosine receptor A1) of 1.11 µM, a Ki (Adenosine receptor A2a) of 0.023 µM and a Ratio Ki (Homo sapiens) of 49.

`COc1cccc(-n2c(=O)n(Cc3c(F)cccc3F)c3cnc(NCc4ccccc4)nc32)c1` gave a Ki (Adenosine receptor A1) of 2.97 µM, a Ki (Adenosine receptor A2a) of 0.072 µM and a Ratio Ki (Homo sapiens) of 42.

With `COc1cccc(Cn2c(=O)n(Cc3ccccc3OC)c3cnc(NC4CC4)nc32)c1` the Ki (Adenosine receptor A1) was > 10 µM and the Ki (Adenosine receptor A2a) was 9.21 µM.

For `COc1cccc(-n2c(=O)n(Cc3c(F)cccc3F)c3cnc(NC4CCCC4)nc32)c1`, the Ki (Adenosine receptor A1) was 1.06 µM, the Ki (Adenosine receptor A2a) was 0.213 µM and the Ratio Ki (Homo sapiens) was 5.

With `COc1ccccc1Cn1c(=O)n(-c2cccc(F)c2)c2nc(NC3CC3)ncc21` the Ki (Adenosine receptor A1) was 0.599 µM, the Ki (Adenosine receptor A2a) was 0.089 µM and the Ratio Ki (Homo sapiens) was 7.

For `COc1ccccc1Cn1c(=O)n(-c2cccc(C)c2)c2nc(NC3CC3)ncc21`, the Ki (Adenosine receptor A1) was 1.85 µM, the Ki (Adenosine receptor A2a) was 0.316 µM and the Ratio Ki (Homo sapiens) was 6.

Work on `COc1cccc(-n2c(=O)n(Cc3ccccc3OC)c3cnc(NC4CC4)nc32)c1` yielded a Ki (Adenosine receptor A1) of 0.402 µM, a Ki (Adenosine receptor A2a) of 0.024 µM and a Ratio Ki (Homo sapiens) of 17.

Compound `COc1cccc(-n2c(=O)n(Cc3c(F)cccc3F)c3cnc(Nc4cccnc4)nc32)c1` has a Ki (Adenosine receptor A1) of 1.83 µM, a Ki (Adenosine receptor A2a) of 0.111 µM and a Ratio Ki (Homo sapiens) of 17.

In the case of `COCCNc1ncc2c(n1)n(-c1cccc(OC)c1)c(=O)n2Cc1c(F)cccc1F`, the Ki (Adenosine receptor A1) is reported as 1.47 µM, the Ki (Adenosine receptor A2a) is reported as 0.106 µM and the Ratio Ki (Homo sapiens) is reported as 14.

`COc1cccc(-n2c(=O)n(Cc3c(F)cccc3F)c3cnc(NCc4ccncc4)nc32)c1` was tested, and the Ki (Adenosine receptor A1) was 1.19 µM, the Ki (Adenosine receptor A2a) was 0.05 µM and the Ratio Ki (Homo sapiens) was 24.

Work on `COc1cccc(-n2c(=O)n(Cc3c(F)cccc3F)c3cnc(NC4CC4)nc32)c1` yielded a Ki (Adenosine receptor A1) of 0.236 µM, a Ki (Adenosine receptor A2a) of 0.004 µM and a Ratio Ki (Homo sapiens) of 59.

`COc1cccc(-n2c(=O)n(Cc3ccccc3F)c3cnc(NC4CC4)nc32)c1` gave a Ki (Adenosine receptor A1) of 0.201 µM, a Ki (Adenosine receptor A2a) of 0.033 µM and a Ratio Ki (Homo sapiens) of 6.

With `COc1ccccc1Cn1c(=O)n(-c2cccc(OC(F)(F)F)c2)c2nc(NC3CC3)ncc21` the Ki (Adenosine receptor A1) was 5.14 µM, the Ki (Adenosine receptor A2a) was 0.206 µM and the Ratio Ki (Homo sapiens) was 25.

For `COc1cccc(-n2c(=O)n(Cc3ccccc3)c3cnc(NC4CC4)nc32)c1`, the Ki (Adenosine receptor A1) was 0.564 µM, the Ki (Adenosine receptor A2a) was 0.054 µM and the Ratio Ki (Homo sapiens) was 10.

For `COc1cccc(-n2c(=O)n(Cc3c(F)cccc3F)c3cnc(NC(C)C)nc32)c1`, the Ki (Adenosine receptor A1) was 0.616 µM, the Ki (Adenosine receptor A2a) was 0.06 µM and the Ratio Ki (Homo sapiens) was 10.

`CCNc1ncc2c(n1)n(-c1cccc(OC)c1)c(=O)n2Cc1c(F)cccc1F` was tested, and the Ki (Adenosine receptor A1) was 1.05 µM, the Ki (Adenosine receptor A2a) was 0.031 µM and the Ratio Ki (Homo sapiens) was 34.

Work on `COc1cccc(-n2c(=O)n(C(C)c3ccccc3)c3cnc(NC4CC4)nc32)c1` (centres undefined) yielded a Ki (Adenosine receptor A2a) of 0.359 µM.

`COc1cccc(-n2c(=O)n(-c3ccccc3OC)c3cnc(NC4CC4)nc32)c1` showed a Ki (Adenosine receptor A1) of 1.27 µM, a Ki (Adenosine receptor A2a) of 5.12 µM and a Ratio Ki (Homo sapiens) of 0.2.

For `COc1cc(OC)cc(-n2c(=O)n(Cc3ccccc3OC)c3cnc(NC4CC4)nc32)c1`, the Ki (Adenosine receptor A1) was 4.64 µM, the Ki (Adenosine receptor A2a) was 0.076 µM and the Ratio Ki (Homo sapiens) was 61.

With `COc1ccccc1Cn1c(=O)n(-c2ccccc2OC)c2nc(NC3CC3)ncc21` the Ki (Adenosine receptor A2a) was 1.56 µM.

For `COc1cccc(-n2c(=O)n(Cc3c(F)cccc3F)c3cnc(NCc4ccccn4)nc32)c1`, the Ki (Adenosine receptor A1) was 1.21 µM, the Ki (Adenosine receptor A2a) was 0.012 µM and the Ratio Ki (Homo sapiens) was 100.

`COc1cccc(-n2c(=O)n(Cc3c(F)cccc3F)c3cnc(NCC4CC4)nc32)c1` gave a Ki (Adenosine receptor A1) of 1.07 µM, a Ki (Adenosine receptor A2a) of 0.499 µM and a Ratio Ki (Homo sapiens) of 2.

`COc1ccccc1Cn1c(=O)n(-c2cccc(C#N)c2)c2nc(NC3CC3)ncc21` was tested, and the Ki (Adenosine receptor A1) was 3.24 µM, the Ki (Adenosine receptor A2a) was 2.59 µM and the Ratio Ki (Homo sapiens) was 1.3.

For `COc1cccc(-n2c(=O)n(Cc3c(F)cccc3F)c3cnc(NCCc4ccccn4)nc32)c1`, the Ki (Adenosine receptor A1) was 1.8 µM, the Ki (Adenosine receptor A2a) was 0.078 µM and the Ratio Ki (Homo sapiens) was 23.

In the case of `COc1cccc(-n2c(=O)n(Cc3c(F)cccc3F)c3cnc(NCc4cccnc4)nc32)c1`, the Ki (Adenosine receptor A1) is reported as 1.3 µM, the Ki (Adenosine receptor A2a) is reported as 0.066 µM and the Ratio Ki (Homo sapiens) is reported as 20.

In the case of `COc1cccc(-n2c(=O)n(Cc3c(F)cccc3F)c3cnc(NCCN4CCOCC4)nc32)c1`, the Ki (Adenosine receptor A1) is reported as 8.6 µM, the Ki (Adenosine receptor A2a) is reported as 0.259 µM and the Ratio Ki (Homo sapiens) is reported as 33.

For `COc1ccccc1Cn1c(=O)n(-c2ccccc2)c2nc(NC3CC3)ncc21`, the Ki (Adenosine receptor A1) was 0.447 µM, the Ki (Adenosine receptor A2a) was 0.409 µM and the Ratio Ki (Homo sapiens) was 1.1.

Work on `COc1cccc(-n2c(=O)n(Cc3c(F)cccc3F)c3cnc(NCCc4cccs4)nc32)c1` yielded a Ki (Adenosine receptor A1) of 1.97 µM, a Ki (Adenosine receptor A2a) of 0.009 µM and a Ratio Ki (Homo sapiens) of 220.

`COc1cccc(-n2c(=O)n(Cc3ccccc3Cl)c3cnc(NC4CC4)nc32)c1` showed a Ki (Adenosine receptor A1) of 2.85 µM, a Ki (Adenosine receptor A2a) of 0.086 µM and a Ratio Ki (Homo sapiens) of 33.

For `COc1cccc(-n2c(=O)n(Cc3c(F)cccc3OC)c3cnc(NC4CC4)nc32)c1`, the Ki (Adenosine receptor A1) was 0.33 µM, the Ki (Adenosine receptor A2a) was 0.006 µM and the Ratio Ki (Homo sapiens) was 55.
